Reference: ChEMBL document CHEMBL5390260 (J Med Chem, 2023)
Activity calls are given as the source filed them. The rule behind the calls is not given here.

Columns and labels:
[1] = tested on: HCT-116; assay: Antiproliferative activity against human HCT-116 cells assessed as inhibition of cell growth measured after 48 to 72 hrs in presence of 5-fluorouracil by MTT assay; type: functional, cell-based
[2] = tested on: SW480; assay: Antiproliferative activity against human SW480 cells assessed as inhibition of cell growth measured after 48 to 72 hrs in presence of 5-fluorouracil by XTT assay; type: functional, cell-based
[3] = tested on: SW-620; assay: Antiproliferative activity against human SW620 cells assessed as inhibition of cell growth measured after 48 to 72 hrs in presence of 5-fluorouracil by XTT assay; type: functional, cell-based
[4] = tested on: NCI/ADR-RES; assay: Antiproliferative activity against human NCI/ADR-RES cells assessed as inhibition of cell growth measured after 48 hrs by sulforhodamine B assay; type: functional, cell-based
[5] = target: Carbonic anhydrase 9 (Homo sapiens, UniProt Q16790)
[6] = target: Carbonic anhydrase 12 (Homo sapiens, UniProt O43570); assay: Binding affinity to human recombinant CA12 assessed as inhibition constant incubated for 15 mins by phenol red dye based stopped flow CO2 hydration assay
Chain of Carbonic anhydrase 12 (O43570 whole entry): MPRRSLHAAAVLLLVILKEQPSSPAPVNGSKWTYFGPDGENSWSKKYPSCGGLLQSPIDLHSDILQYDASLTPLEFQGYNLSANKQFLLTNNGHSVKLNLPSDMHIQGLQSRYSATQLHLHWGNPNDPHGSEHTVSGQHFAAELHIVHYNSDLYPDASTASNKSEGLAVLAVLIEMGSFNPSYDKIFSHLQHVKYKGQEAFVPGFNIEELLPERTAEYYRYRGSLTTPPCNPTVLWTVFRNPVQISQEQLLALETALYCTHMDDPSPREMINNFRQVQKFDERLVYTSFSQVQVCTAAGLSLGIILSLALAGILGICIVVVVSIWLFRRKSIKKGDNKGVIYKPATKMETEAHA

[7] = tested on: HT-29; assay: Cytotoxicity against doxorubicin-resistant human HT-29 cell assessed as reduction in cell viability at 1 to 100 nM incubated for 72 hrs by WST-1 assay; type: functional; details: dose 1-100 nM
[8] = tested on: MDCK; assay: Cytotoxicity against MDCK cells assessed as reduction in cell viability at 1 to 100 nM incubated for 72 hrs by WST-1 assay; type: toxicity, cell-based, Canis lupus familiaris; details: dog, 0.1 µM, dose 1-100 nM
[9] = tested on: HT-29; assay: Cytotoxicity against doxorubicin-sensitive human HT-29 cell assessed as reduction in cell viability at 1 to 100 nM incubated for 72 hrs by WST-1 assay; type: functional; details: dose 1-100 nM
[10] = Cytotoxicity against MDCK-P-gp cells assessed as reduction in cell viability at 1 to 100 nM incubated for 72 hrs by WST-1 assay; type: toxicity, cell-based, Canis lupus familiaris; details: dog, 0.1 µM, dose 1-100 nM
[11] = tested on: MCF7; assay: Antiproliferative activity against human MCF7 cells assessed as inhibition of cell growth measured after 48 hrs by sulforhodamine B assay; type: functional, cell-based; details: MCF7, 48 h
[12] = tested on: OVCAR-8; assay: Antiproliferative activity against human OVCAR-8 cells assessed as inhibition of cell growth measured after 48 hrs by sulforhodamine B assay; type: functional, cell-based; details: OVCAR-8, 48 h
[13] = target: Carbonic anhydrase 2 (Homo sapiens, UniProt P00918); assay: Binding affinity to human recombinant CA2 assessed as inhibition constant incubated for 15 mins by phenol red dye based stopped flow CO2 hydration assay
[14] = target: Tubulin (Homo sapiens) (UniProt P68371+Q9H4B7+P0DPH7+P68366+Q13509+Q71U36+P04350+Q3ZCM7+P07437+P68363+Q9BQE3+Q6PEY2+Q13885+Q9BVA1+Q9BUF5); assay: Inhibition of tubulin polymerization (unknown origin) at 20 uM preincubated for 15 mins followed by GTP addition by spectrophotometric analysis; type: protein-complex assay
[15] = target: T1, ATP-dependent translocase ABCB1 (Homo sapiens, UniProt P08183); assay: Inhibition of P-gp ATPase activity in doxorubicin-resistant human HT-29 cell assessed as reduction in rate of ATP hydrolysis at 10 nM incubated for 3 hrs by spectrophotometric analysis; type: cell-based; details: 0.01 µM
T1 sequence (P08183 whole entry): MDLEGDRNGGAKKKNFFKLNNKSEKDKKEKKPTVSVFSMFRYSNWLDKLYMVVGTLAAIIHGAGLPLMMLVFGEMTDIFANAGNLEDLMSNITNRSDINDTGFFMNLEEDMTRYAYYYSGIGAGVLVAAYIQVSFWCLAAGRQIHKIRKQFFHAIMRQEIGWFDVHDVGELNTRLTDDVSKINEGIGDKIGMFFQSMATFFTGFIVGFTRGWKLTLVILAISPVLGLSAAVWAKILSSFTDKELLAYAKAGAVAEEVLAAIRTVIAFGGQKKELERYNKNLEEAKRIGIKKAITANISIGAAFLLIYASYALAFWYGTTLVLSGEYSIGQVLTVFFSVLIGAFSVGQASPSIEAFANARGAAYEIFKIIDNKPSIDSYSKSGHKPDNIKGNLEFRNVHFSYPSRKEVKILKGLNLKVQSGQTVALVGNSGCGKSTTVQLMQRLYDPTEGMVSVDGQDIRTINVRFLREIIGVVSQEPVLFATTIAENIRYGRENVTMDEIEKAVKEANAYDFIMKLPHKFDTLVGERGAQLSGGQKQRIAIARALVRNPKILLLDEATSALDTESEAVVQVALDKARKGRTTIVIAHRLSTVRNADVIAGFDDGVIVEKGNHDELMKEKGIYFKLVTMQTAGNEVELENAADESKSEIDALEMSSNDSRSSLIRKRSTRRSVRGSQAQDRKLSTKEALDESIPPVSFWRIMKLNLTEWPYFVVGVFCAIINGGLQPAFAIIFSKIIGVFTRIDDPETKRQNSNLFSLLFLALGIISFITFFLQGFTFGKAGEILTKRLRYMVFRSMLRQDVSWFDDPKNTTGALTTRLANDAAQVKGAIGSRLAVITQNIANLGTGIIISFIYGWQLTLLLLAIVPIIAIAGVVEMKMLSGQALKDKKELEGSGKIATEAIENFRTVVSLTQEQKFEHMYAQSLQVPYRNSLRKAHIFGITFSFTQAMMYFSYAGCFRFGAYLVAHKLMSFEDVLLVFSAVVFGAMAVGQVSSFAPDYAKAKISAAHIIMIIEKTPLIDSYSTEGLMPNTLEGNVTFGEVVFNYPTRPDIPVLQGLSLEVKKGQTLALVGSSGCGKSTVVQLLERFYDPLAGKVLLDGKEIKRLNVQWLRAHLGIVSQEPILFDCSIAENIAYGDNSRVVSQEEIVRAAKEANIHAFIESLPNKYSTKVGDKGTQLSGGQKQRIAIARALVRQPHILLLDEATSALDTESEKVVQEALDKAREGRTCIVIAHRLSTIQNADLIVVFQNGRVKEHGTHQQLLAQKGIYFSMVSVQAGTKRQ

[16] = tested on: MDCK-P-gp; assay: Inhibition of P-gp ATPase activity in MDCK-P-gp cells assessed as reduction in rate of ATP hydrolysis at 10 nM incubated for 3 hrs by spectrophotometric analysis; type: cell-based; details: Canis lupus familiaris
[17] = tested on: HCT-116; assay: Inhibition of Wnt/beta-catenin signalling pathway in LiCl stimulated human HCT-116 cells assessed as reduction in Sal4 gene expression upto 30 uM incubated for 24 hrs by RT-PCR analysis; type: cell-based
[18] = tested on: HCT-116; assay: Inhibition of Wnt/beta-catenin signalling pathway in LiCl stimulated human HCT-116 cells assessed as reduction in beta-catenin level upto 30 uM incubated for 24 hrs by Western blotting analysis; type: cell-based
[19] = tested on: HCT-116; assay: Induction of apoptosis in human HCT-116 cells assessed as increase in cleaved PARP level upto 30 uM measured after 72 hrs by Western blotting analysis; type: functional, cell-based
[20] = Cytotoxicity against MDCK-P-gp cells assessed as reduction in cell viability incubated for 72 hrs in presence of doxorubicin by WST-1 assay; type: toxicity, cell-based, Canis lupus familiaris; details: dog, dose 1-100 nM
[21] = tested on: BT-549; assay: Antiproliferative activity against human BT-549 cells assessed as inhibition of cell growth at 0.1 to 30 uM measured after 72 hrs by propidium iodide staining based cytofluorimetric analysis; type: functional; details: dose 0.1-30 µM
[22] = tested on: T-cell; assay: Induction of apoptosis in human T-lymphocyte assessed as increase in cell death at 30 uM measured after 72 hrs by Annexin-V/propidium iodide staining based flow cytometric analysis relative to control; type: toxicity
[23] = target: T1, ATP-dependent translocase ABCB1; assay: Inhibition of P-gp in doxorubicin-resistant human HT-29 cell assessed as increase in intracellular doxorubicin accumulation incubated for 72 hrs in presence of doxorubicin by spectrofluorimetric analysis; type: cell-based; details: 0.1 µM, dose 100 nM
[24] = tested on: MDCK-P-gp; assay: Inhibition of P-gp in MDCK-P-gp cells assessed as effect on intracellular doxorubicin accumulation at 1 to 100 nM incubated for 72 hrs in presence of doxorubicin by […] assay; type: cell-based; details: Canis lupus familiaris, dose 1-100 nM
[25] = tested on: HEK293T; assay: Inhibition of Wnt/beta-catenin signalling pathway in LiCl stimulated HEK293T cells transfected with renilla luciferase and TOPFlash reporter gene incubated for 24 hrs by luminescence based analysis; type: cell-based; details: Homo sapiens, dose <= 30.0 µM
[26] = tested on: HCT-116; assay: Inhibition of Wnt/beta-catenin signalling pathway in LiCl stimulated human HCT-116 cells assessed as reduction in c-MYC level upto 30 uM incubated for 24 hrs by Western blotting analysis; type: cell-based
[27] = tested on: T-cell; assay: Induction of apoptosis in human T-lymphocyte assessed as late apoptotic cells at 30 uM measured after 72 hrs by Annexin-V/propidium iodide staining based flow cytometric analysis (reference value: 14%); type: toxicity
[28] = tested on: MDCK; assay: Cytotoxicity against MDCK cells assessed as reduction in cell viability at 1 to 100 nM incubated for 72 hrs in presence of doxorubicin by WST-1 assay; type: toxicity, cell-based, Canis lupus familiaris; details: dog, 0.1 µM, dose 1-100 nM
[29] = tested on: HCT-116; assay: Inhibition of Wnt/beta-catenin signalling pathway in LiCl stimulated human HCT-116 cells assessed as reduction in […] gene expression upto 30 uM incubated for 24 hrs by RT-PCR analysis; type: cell-based
[30] = tested on: SW-620; assay: Antiproliferative activity against human SW620 cells assessed as inhibition of cell growth measured after 48 to 72 hrs by XTT assay; type: functional, cell-based
[31] = target: T1, ATP-dependent translocase ABCB1; assay: Inhibition of P-gp in human HT-29 cells assessed as effect on intracellular doxorubicin accumulation at 1 to 100 nM incubated for 72 hrs in presence of doxorubicin by spectrofluorimetric analysis; type: cell-based; details: dose 1-100 nM
[32] = tested on: MDA-MB-231; assay: Antiproliferative activity against human MDA-MB-231 cells assessed as inhibition of cell growth at 0.1 to 30 uM measured after 72 hrs by propidium iodide staining based cytofluorimetric analysis; type: functional; details: dose 0.1-30 µM
[33] = tested on: HCT-116; assay: Induction of apoptosis in human HCT-116 cells assessed as increase in cleaved caspase-3 level upto 30 uM measured after 72 hrs by Western blotting analysis; type: functional, cell-based
[34] = tested on: HT-29; assay: Cytotoxicity against doxorubicin-resistant human HT-29 cell assessed as reduction in cell viability […] incubated for 72 hrs in presence of doxorubicin by WST-1 assay; type: functional, cell-based
[35] = tested on: HT-29; assay: Cytotoxicity against doxorubicin-sensitive human HT-29 cell assessed as reduction in cell viability at 1 to 100 nM incubated for 72 hrs in presence of doxorubicin by WST-1 assay; type: functional, cell-based; details: dose 1-100 nM
[36] = tested on: HCT-116; assay: Antiproliferative activity against human HCT-116 cells assessed as inhibition of cell growth measured after 48 to 72 hrs by MTT assay; type: functional, cell-based
[37] = tested on: HEK293T; assay: Inhibition of Wnt/beta-catenin signalling pathway in LiCl stimulated HEK293T cells transfected with renilla luciferase and FOPFlash reporter gene upto 30 uM incubated for 24 hrs by luminescence based analysis; type: cell-based; details: Homo sapiens
[38] = tested on: HT-29; assay: Cytotoxicity against doxorubicin-resistant human HT-29 cell assessed as reduction in cell viability incubated for 72 hrs in presence of doxorubicin by WST-1 assay; type: functional, cell-based; details: dose 1-100 nM
[39] = tested on: SW480; assay: Antiproliferative activity against human SW480 cells assessed as inhibition of cell growth measured after 48 to 72 hrs by XTT assay; type: functional, cell-based

Q: For COc1cc(C(=O)c2cn(-c3ccc(S(N)(=O)=O)cc3)c3ccccc23)cc(OC)c1OC, which IC50 [1] is on record?
A: 14000 nM

Q: What about the IC50 [2] of the same molecule?
A: 50300 nM

Q: What about the IC50 [3] of the same molecule?
A: 25800 nM

Q: For Nc1ccc(C(=O)c2ccc(-c3ccc(S(N)(=O)=O)cc3)cc2)cc1, which EC50 [4] is on record?
A: 2100 nM

Q: For NS(=O)(=O)c1ccc(-n2cc(C(=O)c3ccccc3)c(-c3ccccc3)c2)cc1, which Ki [5] is on record?
A: 38.6 nM

Q: And the Ki [6]?
A: 59.4 nM

Q: With NS(=O)(=O)c1ccc(-n2cc(C(=O)c3ccccc3)c3ccccc32)cc1 as the molecule, how does the Ki [5] read?
A: 31.6 nM

Q: What about the Ki [6] of the same molecule?
A: 52 nM

Q: For COc1cccc2c1C(=O)c1c(O)c3c(c(O)c1C2=O)C[C@@](O)(C(=O)CO)C[C@@H]3O[C@H]1C[C@H](N)[C@H](O)[C@H](C)O1 [DOXORUBICIN], which Activity [7] is on record?
A: inactive

Q: And the Activity [8]?
A: Toxic

Q: What about the Activity [9] of the same molecule?
A: Active

Q: What about the Activity [10] of the same molecule?
A: Non-Toxic

Q: Which IC50 [11] does the source give for COc1cc(C(=O)c2ccn(-c3ccc(S(N)(=O)=O)cc3)c2)cc(OC)c1OC here?
A: 3900 nM

Q: What about the IC50 [12] of the same molecule?
A: 1900 nM

Q: And the Ki [5]?
A: 44.8 nM

Q: And the IC50 [4]?
A: 2200 nM

Q: And the Ki [13]?
A: 10.2 nM

Q: What about the inhibition [14] of the same molecule?
A: inactive

Q: What about the Ki [6] of the same molecule?
A: 11.5 nM

Q: For NS(=O)(=O)c1ccc(-n2ccc(C(=O)c3ccccc3)c2)cc1, which Ki [5] is on record?
A: 66 nM

Q: And the Ki [6]?
A: 47.1 nM

Q: With COc1cc(C(=O)c2cn(-c3ccc(S(N)(=O)=O)cc3)cc2-c2ccccc2)cc(OC)c1OC as the molecule, how does the “inhibition (INH)” value [15] read?
A: Active

Q: And the inhibition [16]?
A: Active

Q: What about the Activity [7] of the same molecule?
A: >75%

Q: What about the inhibition [17] of the same molecule?
A: Active

Q: And the inhibition [18]?
A: Active

Q: What about the Activity [19] of the same molecule?
A: Active

Q: And the IC50 [11]?
A: 1900 nM

Q: What about the IC50 [12] of the same molecule?
A: 1900 nM

Q: What about the Activity [20] of the same molecule?
A: Dose-Dependent Effect

Q: And the Activity [21]?
A: Active

Q: And the Activity [22]?
A: 6%

Q: And the “inhibition (INH)” value [23]?
A: Dose-Dependent Effect

Q: And the inhibition [24]?
A: inactive

Q: And the IC50 [4]?
A: 2100 nM

Q: What about the IC50 [1] of the same molecule?
A: 17000 nM

Q: What about the Activity [8] of the same molecule?
A: > 75%

Q: And the Activity [9]?
A: >75%

Q: And the IC50 [2]?
A: 42900 nM

Q: What about the inhibition [25] of the same molecule?
A: Dose-Dependent Effect

Q: And the IC50 [3]?
A: 37300 nM

Q: What about the inhibition [26] of the same molecule?
A: Active

Q: And the Activity [27]?
A: 20%

Q: And the Activity [28]?
A: Non-Toxic

Q: What about the inhibition [29] of the same molecule?
A: Active

Q: And the IC50 [30]?
A: 23800 nM

Q: And the “inhibition (INH)” value [31]?
A: Not Active

Q: And the Activity [32]?
A: Active

Q: And the Activity [33]?
A: Active

Q: And the Activity [34]?
A: Active

Q: What about the Activity [35] of the same molecule?
A: Active

Q: And the IC50 [36]?
A: 8700 nM

Q: And the inhibition [37]?
A: inactive

Q: What about the Activity [38] of the same molecule?
A: Dose-Dependent Effect

Q: What about the Activity [10] of the same molecule?
A: > 75%

Q: What about the IC50 [39] of the same molecule?
A: 17700 nM
